According to patent US20240207427A1, “SELECTIVE DRUG RELEASE FROM INTERNALIZED CONJUGATES OF BIOLOGICALLY ACTIVE COMPOUNDS” (priority 2021, published 2024):
pIC50: −log10 of the molar value. Where two headings read alike, the source gives them in different places.

How the values were obtained:
Type in all cases: cell-based
[1] = test system: pancreatic cancer cells (BxPC3); test: In vitro potency (CellTiter-Glo, 96 h), BxPC3; details: Homo sapiens, BXPC-3, 96 h, CPT free drugs, pancreatic cancer cells BxPC3, 96 h, CellTiter-Glo
Method: (§1) In vitro potency was assessed on multiple cancer cell lines. All cell lines were authenticated by STR profiling at IDEXX Bioresearch and cultured for no more than 2 months after resuscitation. Cells cultured in log-phase growth were seeded for 24 hours in 96-well plates containing […] RPMI 1640 supplemented with 20% FBS. Serial dilutions of antibody-drug conjugates in cell culture media were prepared at 4× working concentrations, and 50 μL of each dilution was added to the 96-well plates. Following addition of test articles, cells were incubated with test articles for 4 days at 37 0° C. After 96 hours, growth inhibition was assessed by CellTiterGlo® (Promega, Madison, WI) and luminescence was measured on a plate reader.
(§2) In Table 7, IC50 values for ADCs are given in ng/mL. Cell viability was determined by CellTiter-Glo staining after 96 h exposure to ADC. ND=Not Determined. Ag2 is an antibody targeting a ubiquitous and readily internalizable antigen. The cancer cell lines tested are renal carcinoma cells (786-0), melanoma cells (A2058), pancreatic cancer cells (BxPC3), non-small-cell lung cancer cells (Calu1), anaplastic large cell lymphoma cells (DEL, DELBVR, Karpas299), Hodgkin's lymphoma cells (L540cy), (Ls174T), breast cancer cells (MDA-MB-231), acute myeloid leukemia cells (MOLM-13), and B-lymphocyte cancer cells (SU-DHL4).
(§3) In vitro potency was assessed on multiple cancer cell lines. All cell lines were authenticated by STR profiling at IDEXX Bioresearch and cultured for no more than 2 months after resuscitation. Cells cultured in log-phase growth were seeded for 24 hours in 96-well plates containing […] RPMI 1640 supplemented with 20% FBS. Following addition of test articles, cells were incubated with test articles for 4 days at 37 0° C. After 96 hours, growth inhibition was assessed by CellTiterGlo® (Promega, Madison, WI) and luminescence was measured on a plate reader.
(§4) Cell viability was determined by CellTiter-Glo staining after 96 h exposure to the compound. ND=Not Determined. The cancer cell lines tested are renal carcinoma cells (786-0), melanoma cells (A2058), pancreatic cancer cells (BxPC3), non-small-cell lung cancer cells (Calu1), anaplastic large cell lymphoma cells (DEL, DELBVR, Karpas299), Hodgkin's lymphoma cells (L540cy), (Ls 174T), breast cancer cells (MDA-MB-231), acute myeloid leukemia cells (MOLM-13), B-lymphocyte cancer cells (SU-DHL4), multiple myeloma cells (MM.1R), (U266), and melanoma cells (SK-MEL-5).
as §1, with “37°” for “37 0°”
(§5) In the following Tables IC50 values for ADCs and CPT free drugs are given in ng/mL and nmol/L concentrations. Cell viability was determined by CellTiter-Glo staining after 96 h exposure to ADC or CPT free drug.
(§6) Cell viability was determined by CellTiter-Glo staining after 96 h exposure to ADC. ND=Not Determined.

[2] = test system: renal carcinoma cells (786-O); test: In vitro potency (CellTiter-Glo, 96 h), 786-O; details: Homo sapiens, 786-0, 96 h, CPT free drugs, renal carcinoma cells 786-O, 96 h, CellTiter-Glo
Method: as §1, §2, §3, §4
as §1, with “37°” for “37 0°”
as §5, §6

[3] = test system: B-lymphocyte cancer cells (SU-DHL4); test: In vitro potency (CellTiter-Glo, 96 h), SU-DHL-4; details: Homo sapiens, SU-DHL-4, 96 h, CPT free drugs, B-lymphocyte cancer cells SU-DHL4, 96 h, CellTiter-Glo
Method: as §1, §2, §3, §4
as §1, with “37°” for “37 0°”
as §5, §6

[4] = test system: anaplastic large cell lymphoma cells (DELBVR); test: In vitro potency (CellTiter-Glo, 96 h), DELBVR
Method: as §1, §2, §3, §4
as §1, with “37°” for “37 0°”
as §5, §6

[5] = test system: acute myeloid leukemia cells (MOLM-13); test: In vitro potency (CellTiter-Glo, 96 h), MOLM-13; details: Homo sapiens, MOLM-13, 96 h, CPT free drugs, acute myeloid leukemia cells MOLM-13, 96 h, CellTiter-Glo
Method: as §1, §2, §3, §4
as §1, with “37°” for “37 0°”
as §5, §6

[6] = test system: breast cancer cells (MDA-MB-231); test: In vitro potency (CellTiter-Glo, 96 h), MDA-MB-231; details: Homo sapiens, MDA-MB-231, 96 h, CPT free drugs, breast cancer cells MDA-MB-231, 96 h, CellTiter-Glo
Method: as §1, §2, §3, §4
as §1, with “37°” for “37 0°”
as §5, §6

[7] = test system: Hodgkin's lymphoma cells (L540cy); test: In vitro potency (CellTiter-Glo, 96 h), L540cy
Method: as §1, §2, §3, §4
as §1, with “37°” for “37 0°”
as §5, §6

[8] = test system: anaplastic large cell lymphoma cells (DEL); test: In vitro potency (CellTiter-Glo, 96 h), DEL
Method: as §1, §2, §3, §4
as §1, with “37°” for “37 0°”
as §5, §6

Ls174T cells = test: In vitro potency (CellTiter-Glo, 96 h), Ls174T; details: Homo sapiens, LS174T, 96 h, CPT free drugs, Ls174T cells, 96 h, CellTiter-Glo
Method: as §1, §2, §3, §4
as §1, with “37°” for “37 0°”
as §5, §6

[9] = test system: anaplastic large cell lymphoma cells (Karpas299); test: In vitro potency (CellTiter-Glo, 96 h), Karpas299; details: Homo sapiens, KARPAS-299, 96 h, CPT free drugs, anaplastic large cell lymphoma cells Karpas299, 96 h, CellTiter-Glo
Method: as §1, §2, §3, §4
as §1, with “37°” for “37 0°”
as §5, §6

[10] = read-out: SU-DHL-4 IC50, Table 29
[11] = read-out: DELBVR IC50, Table 29, CPT free drugs, anaplastic large cell lymphoma cells DELBVR, CellTiter-Glo
[12] = read-out: MOLM-13 IC50, Table 29
[13] = read-out: MDAMB231 IC50, Table 29
[14] = read-out: L540cy IC50, Table 29, CPT free drugs, Hodgkin's lymphoma cells L540cy, CellTiter-Glo
[15] = read-out: DEL IC50, Table 29, CPT free drugs, anaplastic large cell lymphoma cells DEL, CellTiter-Glo
[16] = read-out: Ls174T IC50, Table 29
[17] = read-out: Karpas299 IC50, Table 29
[18] = read-out: SU-DHL-4 IC50, Table 28
[19] = read-out: DELBVR IC50, Table 28, CPT free drugs, anaplastic large cell lymphoma cells DELBVR, CellTiter-Glo
[20] = read-out: MOLM-13 IC50, Table 28
[21] = read-out: MDAMB231 IC50, Table 28
[22] = read-out: L540cy IC50, Table 28, CPT free drugs, Hodgkin's lymphoma cells L540cy, CellTiter-Glo
[23] = read-out: DEL IC50, Table 28, CPT free drugs, anaplastic large cell lymphoma cells DEL, CellTiter-Glo
[24] = read-out: Ls174T IC50, Table 28
[25] = read-out: Karpas299 IC50, Table 28

Row | SMILES | pIC50 ([1]; read-out: BxPC3 IC50, Table 29) | pIC50 ([2]; read-out: 786-O IC50, Table 29) | pIC50 [3, 10] | pIC50 [4, 11] | pIC50 [5, 12] | pIC50 [6, 13] | pIC50 [7, 14] | pIC50 [8, 15] | pIC50 (Ls174T cells; [16]) | pIC50 [9, 17] | pIC50 ([1]; read-out: BxPC3 IC50, Table 28) | pIC50 ([2]; read-out: 786-O IC50, Table 28) | pIC50 [3, 18] | pIC50 [4, 19] | pIC50 [5, 20] | pIC50 [6, 21] | pIC50 [7, 22] | pIC50 [8, 23] | pIC50 (Ls174T cells; [24]) | pIC50 [9, 25]
1 | CC[C@@]1(O)C(=O)OCc2c1cc1n(c2=O)Cc2c-1nc1cc3c(cc1c2CNC1CCN(C)CC1)OCO3 [Compound 7w] | 7.89 | 7.82 | 8.22 | 8.70 | 7.59 | 7.59 | 8.22 | 8.70 | 7.80 | 8.10 |  |  |  |  |  |  |  |  |  | 
2 | CC[C@@]1(O)C(=O)OCc2c1cc1n(c2=O)Cc2c-1nc1cc3c(cc1c2CNC[C@@H](O)CN1CCCCC1)OCO3 [Compound 7z] | 6.90 | 6.91 | 7.41 | 7.80 | 6.84 | 6.51 | 7.32 | 7.77 | 7.10 | 6.82 |  |  |  |  |  |  |  |  |  | 
3 | CC[C@@]1(O)C(=O)OCc2c1cc1n(c2=O)Cc2c-1nc1cc3c(cc1c2CNCCN1CCNCC1)OCO3 [Compound 8b] | 7.29 | 6.99 | 7.77 | 7.89 | 7.04 | 6.59 | 7.25 | 8.10 | 6.95 | 7.21 |  |  |  |  |  |  |  |  |  | 
4 | CC[C@@]1(O)C(=O)OCc2c1cc1n(c2=O)Cc2c-1nc1cc3c(cc1c2CN1CCN(CCN)CC1)OCO3 [Compound 8c] | 7.85 | 7.57 | 8.15 | 8.40 | 7.16 | 7.24 | 7.85 | 8.52 | 7.49 | 7.55 |  |  |  |  |  |  |  |  |  | 
5 | CC[C@@]1(O)C(=O)OCc2c1cc1n(c2=O)Cc2c-1nc1cc3c(cc1c2CNCCCN1CCNCC1)OCO3 [Compound 8d] | 7.85 | 7.82 | 8.22 | 8.70 | 7.43 | 7.60 | 8.22 | 8.70 | 7.72 | 8.05 |  |  |  |  |  |  |  |  |  | 
6 | CC[C@@]1(O)C(=O)OCc2c1cc1n(c2=O)Cc2c-1nc1cc3c(cc1c2CNC1CCNCC1)OCO3 [Compound 8e] | 7.21 | 6.98 | 7.60 | 8.00 | 7.05 | 6.99 | 7.44 | 8.15 | 6.96 | 7.14 |  |  |  |  |  |  |  |  |  | 
7 | CC[C@@]1(O)C(=O)OCc2c1cc1n(c2=O)Cc2c-1nc1cc3c(cc1c2CN1CCC(N)CC1)OCO3 [Compound 8f] | 6.78 | 6.57 | 7.49 | 7.52 | 7.49 | 6.68 | 7.08 | 7.85 | 6.63 | 6.96 |  |  |  |  |  |  |  |  |  | 
8 | CC[C@@]1(O)C(=O)OCc2c1cc1n(c2=O)Cc2c-1nc1cc3c(cc1c2CNC(C)=O)CCO3 [Compound 12] |  |  |  |  |  |  |  |  |  |  | 7.92 | 7.89 | 9.00 | 9.00 | 8.30 | 7.57 | 8.30 | 9.00 | 7.72 | 7.62
9 | CC[C@@]1(O)C(=O)OCc2c1cc1n(c2=O)Cc2c-1nc1cc(F)c(C)c(Cl)c1c2CNC(C)=O [Compound 12a] |  |  |  |  |  |  |  |  |  |  | 8.70 | 9.00 | 9.40 | 9.70 | 9.00 | 8.70 | 9.40 | 9.70 | 8.15 | 9.00
10 | CC[C@@]1(O)C(=O)OCc2c1cc1n(c2=O)Cc2c-1nc1cc3c(cc1c2CNC(=O)CN)CCO3 [Compound 13] |  |  |  |  |  |  |  |  |  |  | 7.03 | 6.86 | 7.74 | 7.68 | 7.06 | 6.75 | 7.35 | 8.10 | 6.71 | 6.90
